From publication PMC10762375 (Computational and Structural Biotechnology Journal, 2023)
Substitutions are numbered along the chain they refer to.

How the values were obtained:
rP2X2 K212A = target: T1, rP2X2 K212A (Rattus norvegicus, UniProt P49653, K212A); test: Conventional whole-cell patch recording of ATP-evoked currents, transfected HEK293 cells; type: cell-based
T1 construct: expressed in transfected cells; host or cells: HEK293
T1 sequence (P49653 1-472 K212A): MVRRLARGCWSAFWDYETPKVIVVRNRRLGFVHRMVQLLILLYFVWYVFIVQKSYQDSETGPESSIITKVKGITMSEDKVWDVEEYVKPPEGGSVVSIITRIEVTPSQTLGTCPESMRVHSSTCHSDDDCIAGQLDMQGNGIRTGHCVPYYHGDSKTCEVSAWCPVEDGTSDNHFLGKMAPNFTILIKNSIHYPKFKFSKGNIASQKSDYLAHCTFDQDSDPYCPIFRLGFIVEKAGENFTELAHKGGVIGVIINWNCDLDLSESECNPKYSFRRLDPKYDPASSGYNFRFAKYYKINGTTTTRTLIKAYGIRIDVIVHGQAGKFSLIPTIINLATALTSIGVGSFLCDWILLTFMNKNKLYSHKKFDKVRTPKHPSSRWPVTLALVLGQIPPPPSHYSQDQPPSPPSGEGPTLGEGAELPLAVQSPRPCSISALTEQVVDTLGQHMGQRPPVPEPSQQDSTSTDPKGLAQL
Procedure: (§1) As we described previously, [41], [42], human embryonic kidney (HEK 293) cells were purchased from Shanghai Institutes for Biological Sciences and cultured in Dulbecco's Modified Eagle Medium supplemented with 10% fetal bovine serum (FBS), 1% penicillin-streptomycin and 1% GlutaMAX™ at 37 °C, 5% CO2 and 95% air in a humidified environment. Plasmids were transfected into cells using transfection agents containing two solutions (Solution A: 250 mM CaCl2 in pure water; Solution B (in mM): 1.5 Na2HPO4, 140 NaCl and 50 HEPES, pH adjusted to 6.96). After mixing 2.5–3 μg of the plasmid and solution A, the mixture was added dropwise to an equal volume of solution B, followed by stirring with a pipette tip. The mixture was left to stabilize at room temperature for 3–5 min and then added to the cell culture dish. After 6 h of transfection, the medium in the culture dish was replaced with fresh medium.
(§2) Nystatin (0.15 mg/mL) was diluted with a high potassium internal solution containing (in mM): 75 K2SO4, 55 KCl, 5 MgSO4, and 10 HEPES (pH 7.4). The ckP2X7 and rP2X2 receptor currents were recorded using conventional whole-cell patch configuration. At 24–48 h after transfection, HEK293 cells were recorded using an Axopatch 200B amplifier (Molecular Devices, USA) at room temperature (25 ± 2 °C), with holding a potential of − 60 mV. Current data were sampled at 10 kHz, filtered at 2 kHz, and analyzed using the PCLAMP 10 software (Molecular Devices, USA). HEK293 cells were bathed in standard extracellular solution (SS) containing (in mM): 150 NaCl, 5 KCl, 2 CaCl2, 1 MgCl2, 10 glucose, and 10 HEPES (pH 7.4, by Tris-base). For conventional whole-cell recordings, the pipette solution consisted of (in mM): 120 KCl, 30 NaCl, 0.5 CaCl2, 1 MgCl2, 5 EGTA, and 10 HEPES (pH 7.4, by Tris-base). ATP and drugs were dissolved in standard extracellular solution and administered with a Y-tube.
(§3) All electrophysiological recordings were analyzed using Clampfit 10.6 (Molecular Devices). Pooled data were expressed as mean and standard error of the mean (s.e.m.). Comparisons between multiple independent groups were performed using one-way ANOVA followed by Dunnett's tests. Comparisons between two groups were made using paired (before and after engineered disulfide bond cross-linking) or unpaired Student’s t tests, as appropriate.

rP2X2 WT = target: T2, rP2X2 WT (Rattus norvegicus, UniProt P49653); test: as above; type: cell-based
T2 construct: expressed in transfected cells; host or cells: HEK293
T2 sequence (P49653 1-472): T1 sequence (P49653 1-472 K212A) with A212K
Procedure: as §1, §2, §3

rP2X2 V119W/H120W = target: T3, rP2X2 V119W/H120W (Rattus norvegicus, UniProt P49653, H120W/V119W); test: as above; type: cell-based
T3 construct: expressed in transfected cells; host or cells: HEK293
T3 sequence (P49653 1-472 V119W/H120W): T1 sequence (P49653 1-472 K212A) with V119W, H120W, A212K
Procedure: as §1, §2, §3

F 174 A mutant of hP2X3 = test system: F 174 A mutant of hP2X3; design: method as in PMID 24223907; details: hP2X3 F174A; cited from earlier work
ckP2X7 T202W = type: cell-based, chicken
hP2X3 R204A = target: T4, hP2X3 R204A (Homo sapiens, UniProt P56373, R204A); test: Nystatin perforated patch recording of ATP-evoked currents, transfected HEK293 cells; type: cell-based
T4 construct: expressed in transfected cells; host or cells: HEK293
T4 sequence (P56373 1-397 R204A): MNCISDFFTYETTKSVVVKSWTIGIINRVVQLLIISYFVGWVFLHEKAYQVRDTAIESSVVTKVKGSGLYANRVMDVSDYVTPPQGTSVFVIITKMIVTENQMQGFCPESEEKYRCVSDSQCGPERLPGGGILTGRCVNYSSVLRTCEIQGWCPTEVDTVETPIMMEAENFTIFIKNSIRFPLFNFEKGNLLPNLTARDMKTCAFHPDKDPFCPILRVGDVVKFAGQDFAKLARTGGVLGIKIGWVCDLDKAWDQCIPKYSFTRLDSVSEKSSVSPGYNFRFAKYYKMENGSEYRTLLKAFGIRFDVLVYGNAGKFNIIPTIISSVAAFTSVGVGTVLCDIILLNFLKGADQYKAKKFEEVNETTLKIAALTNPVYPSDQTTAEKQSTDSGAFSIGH

hP2X3 WT = target: T5, hP2X3 WT (Homo sapiens, UniProt P56373); test: as above; type: cell-based; details: Hill 1 fit
T5 construct: host or cells: HEK293
T5 sequence (P56373 1-397): T4 sequence (P56373 1-397 R204A) with A204R

rP2X3 K201C/V274C = target: T6, rP2X3 K201C/V274C (Rattus norvegicus, UniProt P49654, K201C/V274C); test: as above; type: cell-based; details: Hill 1 fit
T6 construct: EGFP (only implied by the anti-EGFP blot of rP2X3 plasmids); expressed in transfected cells; host or cells: HEK293
T6 sequence (P49654 1-397 K201C/V274C): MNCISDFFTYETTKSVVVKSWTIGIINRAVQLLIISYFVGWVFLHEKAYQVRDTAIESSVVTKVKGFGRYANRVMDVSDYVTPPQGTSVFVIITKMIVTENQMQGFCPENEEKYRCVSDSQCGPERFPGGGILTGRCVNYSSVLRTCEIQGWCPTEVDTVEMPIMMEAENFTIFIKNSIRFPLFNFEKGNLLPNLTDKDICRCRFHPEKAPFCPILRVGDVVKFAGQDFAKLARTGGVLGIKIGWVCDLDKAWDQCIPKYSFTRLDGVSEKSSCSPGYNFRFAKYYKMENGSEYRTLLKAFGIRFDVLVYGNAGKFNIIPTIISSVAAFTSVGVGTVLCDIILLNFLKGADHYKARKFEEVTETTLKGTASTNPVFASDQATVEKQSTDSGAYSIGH

hP2X3 K113A = target: T7, hP2X3 K113A (Homo sapiens, UniProt P56373, K113A); test: as above; type: cell-based
T7 construct: expressed in transfected cells; host or cells: HEK293
T7 sequence (P56373 1-397 K113A): T4 sequence (P56373 1-397 R204A) with K113A, A204R

rP2X3 WT = target: T8, rP2X3 WT (Rattus norvegicus, UniProt P49654); test: as above; type: cell-based; details: Hill 1 fit, mean ± s.e.m.
T8 construct: EGFP (only implied by the anti-EGFP blot of rP2X3 plasmids); expressed in transfected cells; host or cells: HEK293
T8 sequence (P49654 1-397): T6 sequence (P49654 1-397 K201C/V274C) with C201K, C274V
Procedure: As we described previously, [41], [42], human embryonic kidney (HEK 293) cells were purchased from Shanghai Institutes for Biological Sciences and cultured in Dulbecco's Modified Eagle Medium supplemented with 10% fetal bovine serum (FBS), 1% penicillin-streptomycin and 1% GlutaMAX™ at 37 °C, 5% CO2 and 95% air in a humidified environment. Plasmids were transfected into cells using transfection agents containing two solutions (Solution A: 250 mM CaCl2 in pure water; Solution B (in mM): 1.5 Na2HPO4, 140 NaCl and 50 HEPES, pH adjusted to 6.96). […]
Nystatin (0.15 mg/mL) was diluted with a high potassium internal solution containing (in mM): 75 K2SO4, 55 KCl, 5 MgSO4, and 10 HEPES (pH 7.4). The ckP2X7 and rP2X2 receptor currents were recorded using conventional whole-cell patch configuration. At 24–48 h after transfection, HEK293 cells were recorded using an Axopatch 200B amplifier (Molecular Devices, USA) at room temperature (25 ± 2 °C), with holding a potential of − 60 mV. Current data were sampled at 10 kHz, filtered at 2 kHz, and analyzed using the PCLAMP 10 software (Molecular Devices, USA). […]
All electrophysiological recordings were analyzed using Clampfit 10.6 (Molecular Devices). Pooled data were expressed as mean and standard error of the mean (s.e.m.). […]

Compound	IC50 (rP2X2 K212A) [µM]	reduction of potency of inhibition by TNP-ATP vs WT (rP2X2 K212A; rP2X2 K212A vs rP2X2 WT) [fold]	IC50 (rP2X2 WT) [µM]	IC50 (rP2X2 V119W/H120W) [µM]	reduction of sensitivity to TNP-ATP inhibition vs WT (rP2X2 V119W/H120W; rP2X2 V119W/H120W vs rP2X2 WT) [fold]	effect of mutation on inhibition by TNP-ATP (F 174 A mutant of hP2X3)	enhancement of apparent affinity of TNP-ATP vs WT (ckP2X7 T202W; 1 mM ATP)	EC50 (hP2X3 R204A) [nM]	EC50 (hP2X3 WT) [nM]	EC50 (rP2X3 K201C/V274C) [µM]	EC50 (hP2X3 K113A) [nM]	EC50 (rP2X2 K212A; rP2X2 K212A) [µM]	EC50 (rP2X2 WT; rP2X2 WT) [µM]	EC50 (rP2X2 V119W/H120W; rP2X2 V119W/H120W) [µM]	reduction in affinity to ATP vs WT (ckP2X7 T202W)	EC50 (rP2X3 WT) [nM]
Nc1ncnc2c1ncn2[C@@H]1O[C@H](COP(=O)(O)OP(=O)(O)OP(=O)(O)O)[C@H]2OC3(O[C@H]21)C([N+](=O)[O-])=CC(=[N+]([O-])[O-])C=C3[N+](=O)[O-] (stereo partly shown) [TNP-ATP, 2',3'-O-(2,4,6-trinitrophenyl)-ATP]	15.8 ± 2	~5	3.14 ± 0.95	24.9 ± 5	~8	does not alter the inhibition	about 38 fold									
Nc1ncnc2c1ncn2[C@@H]1O[C@H](COP(=O)(O)OP(=O)(O)OP(=O)(O)O)[C@@H](O)[C@H]1O [ATP]								1220 ± 220	767 ± 99	12.9 ± 2.7	872 ± 232	9.83 ± 0.34	5.39 ± 0.11	221 ± 36	approximately 60 fold	832 ± 143
